Assay results as given in ChEMBL document CHEMBL1132653, “Substitution at the F-ring N-imide of the indolocarbazole antitumor drug NB-506 increases the cytotoxicity, DNA binding, and topoisomerase I inhibition activities” (J Med Chem, 1999).

What was measured:
[1] = The compound was tested for Binding constant against DNA; format: ADME
[2] = The compound was tested for free energy change at binding to DNA; format: ADME
[3] = tested on: HCT-116; test: Cytotoxicity against human colon cancer cells (HCT116); format: functional, cell-based
[4] = tested on: MKN-45; test: Cytotoxicity against human gastric cancer cells (MKN-45); format: functional, cell-based; details: MKN-45, Stomach
[5] = tested on: DLD-1; test: Cytotoxicity against human colon cancer cells (DLD-1); format: functional, cell-based
[6] = tested on: P388; test: Cytotoxicity against murine leukemia cell line (P388); format: functional, cell-based; details: Mus musculus

| K/10e4 [1] | -Delta G obs [2] | Structure (SMILES) | IC50 [3] | IC50 [4] | IC50 [5] | IC50 [6] |
| --- | --- | --- | --- | --- | --- | --- |
| 8.19 M⁻¹ | 6.56 kcal/mol | O=C1c2c(c3c4cccc(O)c4n(C4OC(CO)C(O)C(O)C4O)c3c3[nH]c4c(O)cccc4c23)C(=O)N1NC(CO)CO (centres undefined) | 32 nM | – | – | – |
| 2.64 M⁻¹ | 5.91 kcal/mol | O=CNN1C(=O)c2c(c3c4cccc(O)c4n(C4OC(CO)C(O)C(O)C4O)c3c3[nH]c4c(O)cccc4c23)C1=O (centres undefined) | 120 nM | 390 nM | 2100 nM | 62 nM |
